Source: patent US20160136110A1, “Method for Treating a Neurodegenerative Event” (MAKScientific, LLC, priority 2012, published 2016)
pIC50: −log10 of the molar value.

What was measured:
[1] = tested on: GDNF; assay: GDNF ELISA of hippocampus after kainic acid injection; type: in vivo, rat; details: young rats (PND 22), kainic acid i.p. followed by 8 mg/kg i.p., 24 h; vs vehicle, p<0.02; FIG. 1A
Procedure: (§1) Young rats (PND 22) were injected i.p. with kainic acid (KA), followed immediately by vehicle (veh) or the FAAH inhibitor, Compound 1 (8 mg/kg, i.p.). After 24 h, hippocampus was rapidly dissected, and the homogenates were centrifuged to obtain supernatant for ELISA measures of GDNF) and BDNF. Standard curves were used to convert measures to pg cytokine per mg supernatant protein (±SEM). Unpaired t-tests: GDNF, *p<0.02; BDNF, ***p<0.001.

[2] = target: T1, rat and/or human FAAH enzyme (UniProt P97612); assay: FAAH inhibition assay; type: biochemical; details: rat or human FAAH inhibition assay as in Rahn et al. (2011)
T1 sequence (P97612 1-579): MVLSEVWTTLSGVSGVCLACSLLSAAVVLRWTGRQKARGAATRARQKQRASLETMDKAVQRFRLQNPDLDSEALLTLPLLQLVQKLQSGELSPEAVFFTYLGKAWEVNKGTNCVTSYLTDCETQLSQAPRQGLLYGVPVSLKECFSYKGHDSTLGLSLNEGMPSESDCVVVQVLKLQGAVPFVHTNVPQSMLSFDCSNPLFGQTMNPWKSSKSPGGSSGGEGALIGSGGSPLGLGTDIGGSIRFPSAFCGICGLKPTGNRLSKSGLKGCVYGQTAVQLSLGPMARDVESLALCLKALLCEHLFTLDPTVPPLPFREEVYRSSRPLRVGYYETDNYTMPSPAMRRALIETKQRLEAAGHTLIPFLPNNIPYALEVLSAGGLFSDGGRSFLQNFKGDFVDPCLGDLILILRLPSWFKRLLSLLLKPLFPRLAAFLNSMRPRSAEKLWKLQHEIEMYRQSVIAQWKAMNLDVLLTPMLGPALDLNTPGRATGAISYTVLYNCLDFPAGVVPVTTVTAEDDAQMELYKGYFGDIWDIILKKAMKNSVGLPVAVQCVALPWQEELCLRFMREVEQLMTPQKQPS
From the text: Biochem and Behavior 98: 493. […] Particular FAAH inhibitor compounds for use with the invention include those disclosed in the following references: Deng, H (2010) Expert Opin. Drug Discovery 5(10): 961-993 and Blankman (2013) Pharmacol Rev 65:849-871, Seierstad (2008) J. Med. Chem., 51 (23), pp 7327-7343, Ahn (2009) Expert Opin. Drug Discov. 4(7):763-784 and references cited therein.

[3] = tested on: BDNF; assay: BDNF ELISA of hippocampus after kainic acid injection; type: in vivo, rat; details: young rats (PND 22), kainic acid i.p. followed by 8 mg/kg i.p., 24 h; vs vehicle, p<0.001; FIG. 1B
Procedure: as §1

pIC50 [2]: 7.38
SMILES: O=C(CCCOc1ccc(OCc2ccccc2)cc1)C(F)(F)F [Compound 1, 5-(4-(benzyloxy)phenoxy)-1,1,1-trifluoropentan-2-one]
GDNF levels in hippocampus (ELISA) [1]: enhances GDNF levels | BDNF levels in hippocampus (ELISA) [3]: protects against excitotoxin-induced reduction in BDNF
